Measured values taken from patent publication US9567322B2, “Substituted tetrahydropyrans and method of use” (AbbVie S.á.r.l., priority 2014, dated 2017).

Target: T1, F508delCFTR (Homo sapiens, UniProt P13569, DEL508-508)
T1 construct: expressed in transfected cells; host or cells: CFBE41o- (CFBE41o-F508delCFTR-HRP), doxycycline-inducible
Assay: Cell Surface Expression-Horse Radish Peroxidase (CSE-HRP) assay
Type: cell-based
Conditions: CFBE41o-F508delCFTR-HRP cells; for EC50: cell surface expression, luminescence readout, 18-24 hours at 33° C., highest concentration tested 20 μM, 8-point curve; for Maximum % activity: maximum at any tested concentration, normalized to on-plate positive control (3 μM) and DMSO
Source text: Cell Surface Expression-Horse Radish Peroxidase (CSE-HRP) Assay:
A cellular assay for measuring the F508delCFTR cell surface expression after correction with test compounds was developed in human lung derived epithelial cell line (CFBE41o-) (Veit G et al, (2012) Mol Biol Cell. 23(21): 4188-4202). This was achieved by expressing the F508delCFTR mutation along with a horseradish peroxidase (HRP) in the fourth exofacial loop and then measuring the HRP activity using luminescence readout from these cells, CFBE41o-F508delCFTR-HRP, that were incubated overnight with the test corrector compounds. Briefly, for this primary assay, the CFBE41o-F508delCFTR-HRP cells were plated in 384-well plates (Greiner Bio-one; Cat 781080) at 4,000 cells/well along with 0.5 μg/mL doxycycline to induce the F508delCFTR-HRP expression and further incubated at 37° C., 5% CO2 for 72 hours. The test compounds were then added at the required concentrations and further incubated for 18-24 hours at 33° C. The highest concentration tested was 20 μM with an 8-point concentration response curve using a 3-fold dilution. Three replicate plates were run to determine one EC50. All plates contained negative controls (dimethyl sulfoxide, DMSO) and positive controls (3 μM of 3-[(2R,4R)-4-({[1-(2,2-difluoro-1,3-benzodioxol-5-yl)cyclopropyl]carbonyl}amino)-7-methoxy-3,4-dihydro-2H-chromen-2-yl]benzoic acid) as well as on-plate concentration response of the positive control. Post incubation, the plates were washed 5× times with Dulbecco's phosphate buffered saline (DPBS), followed by the addition of the HRP substrate, luminol (50 μL), and measuring the HRP activity using luminescence readout on EnVision® Multilabel Plate Reader (Perkin Elmer; product number 2104-0010). The raw counts from the experiment are analyzed using Accelrys® Assay Explorer v3.3.
Z′ greater than 0.5 was used as passing quality control criteria for the plates.
The Z′ is defined as: 1−[3*SDPositive Control+3*SDNegative Control/Absolute(MeanPositive Control−MeanNegative Control)],
wherein “SD” is standard deviation.
The % activity measured at each of the 8 test concentrations of the test compound was normalized to the on-plate positive control using the following formula: % activity=[(test compound response−DMSO response)/(positive control response−DMSO response)]*100
The maximum % activity achieved for the test compound at any tested concentration is presented in Table 1 along with the EC50 calculated using the following general sigmoidal curve with variable Hill slope equation (described as Model 42 in the Accelrys® Assay Explorer v3.3 software): y=(a−d)/(1+(x/c)^b)+d General sigmoidal curve with concentration, response, top, bottom, EC50 and Hill slope.
This model describes a sigmoidal curve with an adjustable baseline, a. The equation can be used to fit curves where response is either increasing or decreasing with respect to the independent variable, “x”.
“x” is a concentration of drug under test.
“a” is the maximum response, and “d” is the minimum response
“c” is the inflection point (EC50) for the curve. That is, “y” is halfway between the lower and upper asymptotes when x=c.
“b” is the slope-factor or Hill coefficient. The sign of b is positive when the response increases with increasing dose and is negative when the response decreases with increasing dose (inhibition).

T1 sequence (P13569 with tags, fused parts or gaps DEL508-508): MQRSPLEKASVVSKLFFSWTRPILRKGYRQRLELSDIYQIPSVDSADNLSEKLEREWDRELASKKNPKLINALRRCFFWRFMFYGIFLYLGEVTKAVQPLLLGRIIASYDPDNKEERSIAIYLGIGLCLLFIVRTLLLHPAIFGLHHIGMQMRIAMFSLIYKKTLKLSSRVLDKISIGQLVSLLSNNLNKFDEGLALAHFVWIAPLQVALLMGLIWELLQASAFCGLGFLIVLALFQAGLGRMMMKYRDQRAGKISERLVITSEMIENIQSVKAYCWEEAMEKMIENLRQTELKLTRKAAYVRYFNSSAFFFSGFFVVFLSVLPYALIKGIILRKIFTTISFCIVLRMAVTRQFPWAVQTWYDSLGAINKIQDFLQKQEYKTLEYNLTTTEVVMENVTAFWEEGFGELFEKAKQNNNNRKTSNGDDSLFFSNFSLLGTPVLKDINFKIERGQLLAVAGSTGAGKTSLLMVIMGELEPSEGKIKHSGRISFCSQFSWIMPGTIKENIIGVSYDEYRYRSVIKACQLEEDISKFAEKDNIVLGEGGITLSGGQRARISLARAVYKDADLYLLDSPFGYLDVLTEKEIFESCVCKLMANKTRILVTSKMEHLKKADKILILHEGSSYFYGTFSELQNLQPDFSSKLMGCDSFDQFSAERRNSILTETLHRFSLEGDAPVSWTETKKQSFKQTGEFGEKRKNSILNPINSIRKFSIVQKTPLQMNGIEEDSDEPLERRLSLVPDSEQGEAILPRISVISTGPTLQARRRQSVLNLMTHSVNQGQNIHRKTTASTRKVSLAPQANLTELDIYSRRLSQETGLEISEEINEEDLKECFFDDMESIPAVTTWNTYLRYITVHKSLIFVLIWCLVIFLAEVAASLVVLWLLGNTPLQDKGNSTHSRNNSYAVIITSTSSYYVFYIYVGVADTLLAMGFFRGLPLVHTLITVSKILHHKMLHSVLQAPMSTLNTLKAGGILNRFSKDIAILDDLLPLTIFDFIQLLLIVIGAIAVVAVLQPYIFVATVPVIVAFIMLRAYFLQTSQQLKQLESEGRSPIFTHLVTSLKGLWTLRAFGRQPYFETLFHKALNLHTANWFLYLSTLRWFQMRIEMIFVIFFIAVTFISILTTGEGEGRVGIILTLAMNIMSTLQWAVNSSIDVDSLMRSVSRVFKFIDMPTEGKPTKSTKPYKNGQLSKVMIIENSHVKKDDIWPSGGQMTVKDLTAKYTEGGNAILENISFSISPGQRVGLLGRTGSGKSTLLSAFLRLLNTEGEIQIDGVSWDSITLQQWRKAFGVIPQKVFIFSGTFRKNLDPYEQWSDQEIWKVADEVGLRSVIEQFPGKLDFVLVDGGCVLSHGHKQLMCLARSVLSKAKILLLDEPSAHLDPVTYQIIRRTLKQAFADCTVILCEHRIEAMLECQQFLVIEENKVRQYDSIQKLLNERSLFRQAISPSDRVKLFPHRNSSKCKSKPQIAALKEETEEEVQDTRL

EC50 [nM] | Maximum % activity [%] | Compound
≥ 20000 | 16 | O=C(O)c1cccc([C@@H]2C[C@H](NC(=O)C3(c4ccc5c(c4)OC(F)(F)O5)CC3)C[C@H](c3ccccc3)O2)c1 [Example 26, 3-[(2S,4R,6R)-4-({[1-(2,2-difluoro-1,3-benzodioxol-5-yl)cyclopropyl]carbonyl}amino)-6-phenyltetrahydro-2H-pyran-2-yl]benzoic acid]
1390 | 57 | CC(=O)c1cccc([C@H]2C[C@@H](NC(=O)C3(c4ccc5c(c4)OC(F)(F)O5)CC3)CCO2)c1 (racemic) [Example 8, rac-N-[(2R,4S)-2-(3-acetylphenyl)tetrahydro-2H-pyran-4-yl]-1-(2,2-difluoro-1,3-benzodioxol-5-yl)cyclopropanecarboxamide]
1590 | 38 | Cc1cc(C(=O)O)cc([C@@H]2C[C@H](NC(=O)C3(c4ccc5c(c4)OC(F)(F)O5)CC3)C[C@H](c3ccccc3)O2)c1 (single isomer, unassigned) [Example 76]
320 | 79 | COc1ccc([C@@H]2C[C@H](NC(=O)C3(c4ccc5c(c4)OC(F)(F)O5)CC3)C[C@H](c3ccc(C(=O)O)cc3)O2)cc1 (single isomer, unassigned) [Example 66]
1160 | 110 | COC(=O)c1ccc([C@H]2C[C@@H](NC(=O)C3(c4ccc5c(c4)OC(F)(F)O5)CC3)CCO2)cc1 (racemic) [Example 13, methyl rac-4-[(2R,4S)-4-({[1-(2,2-difluoro-1,3-benzodioxol-5-yl)cyclopropyl]carbonyl}amino)tetrahydro-2H-pyran-2-yl]benzoate]
3890 | 102 | CC1(C)C[C@@H](NC(=O)C2(c3ccc4c(c3)OC(F)(F)O4)CC2)C[C@H](c2ccc(C(=O)O)cc2)O1 (racemic) [Example 33, rac-4-[(2R,4S)-4-({[1-(2,2-difluoro-1,3-benzodioxol-5-yl)cyclopropyl]carbonyl}amino)-6,6-dimethyltetrahydro-2H-pyran-2-yl]benzoic acid]
860 | 105 | COC(=O)c1ccc([C@H]2C[C@@H](NC(=O)C3(c4ccc5c(c4)OC(F)(F)O5)CC3)C[C@@H](c3ccccc3)O2)c(F)c1 (racemic) [Example 63, methyl rac-4-[(2R,4S,6S)-4-({[1-(2,2-difluoro-1,3-benzodioxol-5-yl)cyclopropyl]carbonyl}amino)-6-phenyltetrahydro-2H-pyran-2-yl]-3-fluorobenzoate]
4560 | 67 | COC(=O)c1ccc([C@H]2C[C@H](NC(=O)C3(c4ccc5c(c4)OC(F)(F)O5)CC3)C[C@@H](C)O2)cc1 (racemic) [Example 46, methyl rac-4-[(2R,4R,6R)-4-({[1-(2,2-difluoro-1,3-benzodioxol-5-yl)cyclopropyl]carbonyl}amino)-6-methyltetrahydro-2H-pyran-2-yl]benzoate]
2580 | 88 | O=C(O)c1ccc(C2CC(NC(=O)C3(c4ccc5c(c4)OC(F)(F)O5)CC3)CC(C3CC3)O2)cc1 (stereo not shown) [Example 44, 4-[6-cyclopropyl-4-({[1-(2,2-difluoro-1,3-benzodioxol-5-yl)cyclopropyl]carbonyl}amino)tetrahydro-2H-pyran-2-yl]benzoic acid]
1610 | 105 | COC(=O)c1ccc([C@H]2C[C@@H](NC(=O)C3(c4ccc5c(c4)OC(F)(F)O5)CC3)CC(C)(C)O2)cc1 (racemic) [Example 34, methyl rac-4-[(2R,4R)-4-({[1-(2,2-difluoro-1,3-benzodioxol-5-yl)cyclopropyl]carbonyl}amino)-6,6-dimethyltetrahydro-2H-pyran-2-yl]benzoate]
830 | 100 | COC(=O)c1ccc([C@H]2C[C@@H](NC(=O)C3(c4ccc5c(c4)OC(F)(F)O5)CC3)C[C@@H](c3ccccc3)O2)cc1 (racemic) [Example 48, methyl rac-4-[(2R,4S,6S)-4-({[1-(2,2-difluoro-1,3-benzodioxol-5-yl)cyclopropyl]carbonyl}amino)-6-phenyltetrahydro-2H-pyran-2-yl]benzoate]
2100 | 60 | COC(=O)c1ccc([C@@H]2C[C@H](NC(=O)C3(c4ccc5c(c4)OC(F)(F)O5)CC3)CCO2)c(C)c1 (single isomer, unassigned) [Example 40]
7720 | 59 | O=C(N[C@H]1CCO[C@H](c2ccc(Br)cc2)C1)C1(c2ccc3c(c2)OC(F)(F)O3)CC1 [Example 21, N-[(2S,4S)-2-(4-bromophenyl)tetrahydro-2H-pyran-4-yl]-1-(2,2-difluoro-1,3-benzodioxol-5-yl)cyclopropanecarboxamide]
1640 | 90 | COC(=O)c1ccc([C@H]2C[C@@H](NC(=O)C3(c4ccc5c(c4)OC(F)(F)O5)CC3)C[C@@H](C)O2)cc1 (racemic) [Example 39, methyl rac-4-[(2R,4S,6R)-4-({[1-(2,2-difluoro-1,3-benzodioxol-5-yl)cyclopropyl]carbonyl}amino)-6-methyltetrahydro-2H-pyran-2-yl]benzoate]
2090 | 58 | CC(C)(O)c1cccc([C@H]2C[C@@H](NC(=O)C3(c4ccc5c(c4)OC(F)(F)O5)CC3)CCO2)c1 (racemic) [Example 10, rac-1-(2,2-difluoro-1,3-benzodioxol-5-yl)-N-{(2R,4S)-2-[3-(2-hydroxypropan-2-yl)phenyl]tetrahydro-2H-pyran-4-yl}cyclopropanecarboxamide]
≥ 20000 | 3 | O=C(O)c1cccc([C@@H]2C[C@H](NC(=O)C3(c4ccc5c(c4)OC(F)(F)O5)CC3)CCO2)c1 [Example 18, 3-[(2S,4R)-4-({[1-(2,2-difluoro-1,3-benzodioxol-5-yl)cyclopropyl]carbonyl}amino)tetrahydro-2H-pyran-2-yl]benzoic acid]
1800 | 70 | COC(=O)c1ccc([C@@H]2C[C@@H](NC(=O)C3(c4ccc5c(c4)OC(F)(F)O5)CC3)C[C@H](c3ccc(C(=O)OC)cc3)O2)cc1 [Example 52, dimethyl rac-4,4′-[(2R,4r,6S)-4-({[1-(2,2-difluoro-1,3-benzodioxol-5-yl)cyclopropyl]carbonyl}amino)tetrahydro-2H-pyran-2,6-diyl]dibenzoate]
1310 | 92 | COC(=O)c1ccc(C)c([C@H]2C[C@@H](NC(=O)C3(c4ccc5c(c4)OC(F)(F)O5)CC3)C[C@@H](c3ccccc3)O2)c1 (racemic) [Example 71, methyl rac-3-[(2R,4S,6S)-4-({[1-(2,2-difluoro-1,3-benzodioxol-5-yl)cyclopropyl]carbonyl}amino)-6-phenyltetrahydro-2H-pyran-2-yl]-4-methylbenzoate]
980 | 90 | C[C@@H]1C[C@H](NC(=O)C2(c3ccc4c(c3)OC(F)(F)O4)CC2)C[C@H](c2ccc(C(=O)O)cc2)O1 (single isomer, unassigned) [Example 59]
240 | 89 | COc1cccc([C@@H]2C[C@H](NC(=O)C3(c4ccc5c(c4)OC(F)(F)O5)CC3)C[C@H](c3cccc(C(=O)O)c3)O2)c1 (single isomer, unassigned) [Example 74]
